These results are taken from patent US20140005163A1 (NOVARTIS AG, priority 2010, published 2014).

In brackets after ≈: the same amount, converted by molar mass. Read-outs that look alike come from different tables or passages of the source.

One data set is described as follows: Solubility at pH 6.8. It is filed as physicochemical. Summed up:
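Following the procedure of Zhou et al. (2007), compound solubility was determined at pH 6.8.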

A further data set addresses T1, mTOR (Homo sapiens, UniProt P42345).
T1 construct: purchased Invitrogen Corporation (Carlsbad/CA, USA) PV4753
Kind of data set: Biochemical assay for m-TOR by TR-FRET. The following applies: 8 μM ATP, 400 nM GFP-4EBP1, 0.5 nM mTOR. Summed up:
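TR-FRET detection of pThr46 on GFP-4EBP1 (400 nM final) using Tb3+-labelled antibody (0.5 nM), added with EDTA to stop reactions. Reactions ran at rt with 0.5 nM mTOR and 8 μM ATP (final) in HEPES pH 7.5 buffer containing 10 mM MnCl2.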
On the technique in general: TR-FRET usually uses a lanthanide donor and a delayed reading to cut background.

In data set [1] the test system is PKB Ser473 phosphorylation in Rat1-myr-HA-p110 alpha cells. Kind of data set: Reverse protein array assay, PKB Ser473 phosphorylation in Rat1-myr-p110 alpha cells. Format: cell-based. The following applies: 0.5 h, pAkt Ser473, 30 minutes compound incubation, read-out: p-PKB IC50. The gist of the method:
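Rat1 cells expressing myristoylated HA-tagged p110 alpha, beta or delta were plated for at least 20 h, then exposed to 8-step serial compound dilutions (0.2% DMSO final) for 30 min at 37 °C. Lysates were spotted at four dilutions on protein microarrays, and relative fluorescence intensity of phospho-Ser473 PKB was calculated.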

For data set [2], the system named is S6 Ribosomal Protein phosphorylation Ser235/236 in TSC1 null mouse embryo fibroblast (MEF) cells. Kind of data set: Reverse protein array assay, S6 Ribosomal Protein phosphorylation Ser235/236 in TSC1 null MEF cells. It is filed as cell-based. The following applies: 1 h, pS6 ribosomal protein Ser235/236, 60 minutes incubation, read-out: p-S6 IC50. The gist of the method:
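TSC1−/− MEFs, seeded and held ≥20 h at 37 °C/5% CO2, were exposed to 8-step serial compound dilutions (0.02% DMSO final; DMSO vehicle control) for 60 min at 37 °C. Cells were then lysed on ice for 10 min and lysates spotted onto reverse protein array chips.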

[3] abbreviates: pH 6.8, aqueous buffer, thermodynamic from solid, read-out: solubility.

T1 sequence (P42345 1360-2549 limits assumed): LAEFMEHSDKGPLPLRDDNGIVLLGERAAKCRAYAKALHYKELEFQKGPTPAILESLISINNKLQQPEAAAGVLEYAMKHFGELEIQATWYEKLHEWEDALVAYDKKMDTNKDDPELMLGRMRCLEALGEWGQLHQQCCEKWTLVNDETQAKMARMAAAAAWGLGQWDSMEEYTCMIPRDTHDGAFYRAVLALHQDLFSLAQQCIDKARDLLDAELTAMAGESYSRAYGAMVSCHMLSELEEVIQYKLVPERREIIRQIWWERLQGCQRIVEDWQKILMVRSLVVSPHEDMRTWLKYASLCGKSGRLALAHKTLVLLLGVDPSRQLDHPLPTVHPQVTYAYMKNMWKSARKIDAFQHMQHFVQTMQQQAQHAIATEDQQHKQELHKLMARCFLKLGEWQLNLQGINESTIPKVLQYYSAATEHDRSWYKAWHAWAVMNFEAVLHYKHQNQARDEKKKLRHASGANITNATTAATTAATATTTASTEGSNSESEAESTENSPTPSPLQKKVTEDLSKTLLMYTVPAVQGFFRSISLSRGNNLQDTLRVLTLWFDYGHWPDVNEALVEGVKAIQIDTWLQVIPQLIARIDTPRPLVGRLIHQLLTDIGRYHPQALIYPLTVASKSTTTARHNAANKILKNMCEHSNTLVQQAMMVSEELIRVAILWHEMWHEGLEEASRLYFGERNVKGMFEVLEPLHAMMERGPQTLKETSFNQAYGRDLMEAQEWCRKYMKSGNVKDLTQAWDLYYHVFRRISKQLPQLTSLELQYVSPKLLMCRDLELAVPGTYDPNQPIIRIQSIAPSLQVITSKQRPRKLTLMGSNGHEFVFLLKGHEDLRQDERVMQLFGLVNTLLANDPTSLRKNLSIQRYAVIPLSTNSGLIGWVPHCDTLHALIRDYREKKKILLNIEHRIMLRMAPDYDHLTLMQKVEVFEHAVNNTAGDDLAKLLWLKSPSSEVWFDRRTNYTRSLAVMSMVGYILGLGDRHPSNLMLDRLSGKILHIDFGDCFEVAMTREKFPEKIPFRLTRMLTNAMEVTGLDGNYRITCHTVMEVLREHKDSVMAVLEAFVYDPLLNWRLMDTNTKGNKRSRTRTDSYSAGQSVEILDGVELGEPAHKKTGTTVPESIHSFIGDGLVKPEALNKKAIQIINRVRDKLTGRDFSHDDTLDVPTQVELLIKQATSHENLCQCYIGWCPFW

For `CNc1ncc(-c2ccc3ncc4c(c3c2)n(-c2c(C)nn(C)c2C)c(=O)n4C)cc1Cl` [Example 146.4, 8-(5-Chloro-6-methylamino-pyridin-3-yl)-3-methyl-1-(1,3,5-trimethyl-1H-pyrazol-4-yl)-1,3-dihydro-imidazo[4,5-c]quinolin-2-one], in “Solubility at pH 6.8” (setting [3]), the solubility was determined as 75 µg/mL (≈ 167 µM). Further, the IC50 stood at 309 nM at mTOR, 70 nM in data set [1] and 12 nM in data set [2].
For the compound `CCOc1cncc(-c2ccc3ncc4c(c3c2)n(-c2cn(C)nc2Cl)c(=O)n4C)c1` [Example 56.4, 1-(3-Chloro-1-methyl-1H-pyrazol-4-yl)-8-(5-ethoxy-pyridin-3-yl)-3-methyl-1,3-dihydro-imidazo[4,5-c]quinolin-2-one], in “Solubility at pH 6.8” (setting [3]), the solubility amounted to 14 µg/mL (≈ 32.2 µM). Moreover, the IC50 at mTOR stood at 16 nM; in data set [1], 9 nM; in data set [2], 1 nM.
Regarding `Cc1nn(C)cc1-n1c(=O)n(C)c2cnc3ccc(-c4ccc(-n5cccn5)nc4)cc3c21` [Example 79, 1-(1,3-Dimethyl-1H-pyrazol-4-yl)-3-methyl-8-(6-pyrazol-1-yl-pyridin-3-yl)-1,3-dihydro-imidazo[4,5-c]quinolin-2-one], the solubility in “Solubility at pH 6.8” (pH 6.8) came to 2 µg/mL (≈ 4.58 µM). Besides, the IC50 was under 3 nM on mTOR, 1 nM in data set [1] and 5 nM in data set [2].
In turn, `COc1ncc(-c2ccc3ncc4c(c3c2)n(-c2cn(C)nc2C)c(=O)n4C)cc1C(N)=O` [Example 125.2, 5-[1-(1,3-Dimethyl-1H-pyrazol-4-yl)-3-methyl-2-oxo-2,3-dihydro-1H-imidazo[4,5-c]quinolin-8-yl]-2-methoxy-nicotinamide] gave a solubility in the data set “Solubility at pH 6.8” (pH 6.8) of 2 µg/mL (≈ 4.51 µM). Further, the IC50 at mTOR was found to be 10 nM; in data set [1], 82 nM; in data set [2], 5 nM.
For the compound `CNC(=O)c1ccc(-c2ccc3ncc4c(c3c2)n(-c2cn(C(C)C)nc2C)c(=O)n4C)cn1` [Example 15.3, 5-[1-(1-Isopropyl-3-methyl-1H-pyrazol-4-yl)-3-methyl-2-oxo-2,3-dihydro-1H-imidazo[4,5-c]quinolin-8-yl]-pyridine-2-carboxylic acid methylamide], the solubility in “Solubility at pH 6.8” (setting [3]) came out at 5 µg/mL (≈ 11 µM). The figures for the IC50 (on mTOR; in data set [1]; in data set [2]) were 12 nM, 28 nM and 17 nM, respectively.
For `Cc1nn(C)cc1-n1c(=O)n(C)c2cnc3ccc(-c4cncc(OC(C)C)c4)cc3c21` [Example 58.1, 1-(1,3-Dimethyl-1H-pyrazol-4-yl)-8-(5-isopropoxy-pyridin-3-yl)-3-methyl-1,3-dihydro-imidazo[4,5-c]quinolin-2-one], in that order: over 428 µg/mL, 14 nM, 21 nM and 3 nM.
As for `CCn1cc(-n2c(=O)n(C)c3cnc4ccc(-c5cnc(N(C)C)nc5)cc4c32)c(C)n1` [Example 6.4, 8-(2-Dimethylamino-pyrimidin-5-yl)-1-(1-ethyl-3-methyl-1H-pyrazol-4-yl)-3-methyl-1,3-dihydro-imidazo[4,5-c]quinolin-2-one], the solubility in “Solubility at pH 6.8” (setting [3]) was 36 µg/mL (≈ 84 µM). Moreover, the values for the IC50 (on mTOR; in data set [1]; in data set [2]) were 33 nM, 42 nM and 10 nM, respectively.
In the case of `Cc1nn(C)cc1-n1c(=O)n(C)c2cnc3ccc(-c4cccc(S(=O)(=O)N(C)C)c4)cc3c21` [Example 53.1, 3-[1-(1,3-Dimethyl-1H-pyrazol-4-yl)-3-methyl-2-oxo-2,3-dihydro-1H-imidazo[4,5-c]quinolin-8-yl]-N,N-dimethyl-benzenesulfonamide], in the data set “Solubility at pH 6.8” (setting [3]), the solubility was 3 µg/mL (≈ 6.3 µM). In addition, the IC50 on mTOR turned out to be 107 nM; in data set [1], 15 nM; in data set [2] it was 43 nM.
On to `CCOc1ccc(-c2ccc3ncc4c(c3c2)n(-c2cn(CC)nc2C)c(=O)n4C)cn1` [Example 3.5, 8-(6-Ethoxy-pyridin-3-yl)-1-(1-ethyl-3-methyl-1H-pyrazol-4-yl)-3-methyl-1,3-dihydro-imidazo[4,5-c]quinolin-2-one], for which the solubility in “Solubility at pH 6.8” (setting [3]) was 4 µg/mL (≈ 9.33 µM). Further, the results for the IC50 (at mTOR; in data set [1]; in data set [2]) were 17 nM, 35 nM and 58 nM, respectively.
Turning to `COc1cc(-c2ccc3ncc4c(c3c2)n(-c2cn(C)nc2C)c(=O)n4C)cnc1CO` [Example 193, 1-(1,3-Dimethyl-1H-pyrazol-4-yl)-8-(6-hydroxymethyl-5-methoxy-pyridin-3-yl)-3-methyl-1,3-dihydro-imidazo[4,5-c]quinolin-2-one], the solubility in the data set “Solubility at pH 6.8” (setting [3]) stood at 150 µg/mL (≈ 348 µM). The IC50 on mTOR is 21 nM; in data set [1] it was 8 nM; in data set [2], 5.53 nM.
`[2H]C([2H])([2H])OCc1ncc(-c2ccc3ncc4c(c3c2)n(-c2cn(C)nc2Cl)c(=O)n4C)cc1OC` [Example 199, 1-(3-Chloro-1-methyl-1H-pyrazol-4-yl)-8-(5-methoxy-6-trideuteromethoxymethyl-pyridin-3-yl)-3-methyl-1,3-dihydro-imidazo[4,5-c]quinolin-2-one]: in “Solubility at pH 6.8” (setting [3]), the solubility turned out to be 8 µg/mL (≈ 17.1 µM). In addition, the figures for the IC50 (on mTOR; in data set [1]; in data set [2]) were 12 nM, 23 nM and 2 nM, respectively.
The corresponding values for `Cc1ncc(-c2ccc3ncc4c(c3c2)n(-c2cn(C)nc2C)c(=O)n4C)cc1O` [Example 185.1, 1-(1,3-Dimethyl-1H-pyrazol-4-yl)-8-(5-hydroxy-6-methyl-pyridin-3-yl)-3-methyl-1,3-dihydro-imidazo[4,5-c]quinolin-2-one] are 17 µg/mL (≈ 42.5 µM), under 3 nM, 13 nM and 35 nM.
The corresponding values for `Cc1nn(C)cc1-n1c(=O)n(C)c2cnc3ccc(-c4ccccc4)cc3c21` [Example 37.1, 1-(1,3-Dimethyl-1H-pyrazol-4-yl)-3-methyl-8-phenyl-1,3-dihydro-imidazo[4,5-c]quinolin-2-one] are 3 µg/mL (≈ 8.12 µM), 213 nM, 98 nM and 30 nM.
As to `Cc1nn(C)cc1-n1c(=O)n(C)c2cnc3ccc(-c4cnc5c(c4)ncn5C)cc3c21` [Example 74, 1-(1,3-Dimethyl-1H-pyrazol-4-yl)-3-methyl-8-(3-methyl-3H-imidazo[4,5-b]pyridin-6-yl)-1,3-dihydro-imidazo[4,5-c]quinolin-2-one], the solubility in the data set “Solubility at pH 6.8” (setting [3]) came out at 8 µg/mL (≈ 18.8 µM). The IC50 at mTOR stood at 30 nM; in data set [1] it was 20 nM; in data set [2], 23 nM.
The corresponding values for `Cc1nn(C)cc1-n1c(=O)n(C)c2cnc3ccc(-c4ccc(OCCO)nc4)cc3c21` [Example 107, 1-(1,3-Dimethyl-1H-pyrazol-4-yl)-8-[6-(2-hydroxy-ethoxy)-pyridin-3-yl]-3-methyl-1,3-dihydro-imidazo[4,5-c]quinolin-2-one] are 49 µg/mL (≈ 114 µM), 60 nM, 85 nM and 46 nM.
Turning to `Cc1nn(C)cc1-n1c(=O)n(C)c2cnc3ccc(-c4cncc(C(C)(C)C#N)c4)cc3c21` [Example 220.1, 2-{5-[1-(1,3-Dimethyl-1H-pyrazol-4-yl)-3-methyl-2-oxo-2,3-dihydro-1H-imidazo[4,5-c]quinolin-8-yl]-pyridin-3-yl}-2-methyl-propionitrile], the solubility in the data set “Solubility at pH 6.8” (pH 6.8) worked out at 2 µg/mL (≈ 4.57 µM). The IC50 on mTOR worked out at 27 nM; in data set [1] it was 10 nM; in data set [2], 1 nM.
In the case of `COc1ccc(-c2ccc3ncc4c(c3n2)n(-c2cn(C)nc2C)c(=O)n4C)cc1OC` [Example 250, 8-(3,4-Dimethoxy-phenyl)-1-(1,3-dimethyl-1H-pyrazol-4-yl)-3-methyl-1,3-dihydro-1,3,5,9-tetraaza-cyclopenta[a]naphthalen-2-one], the solubility in the data set “Solubility at pH 6.8” (setting [3]) is 5 µg/mL (≈ 11.6 µM). In addition, the figures for the IC50 (on mTOR; in data set [1]; in data set [2]) were 135 nM, 41 nM and 13 nM, respectively.
In the data set “Solubility at pH 6.8” (pH 6.8), `CCOc1ccc(-c2ccc3ncc4c(c3c2)n(-c2cnn(C)c2C)c(=O)n4C)cn1` [Example 3.6, 1-(1,5-Dimethyl-1H-pyrazol-4-yl)-8-(6-ethoxy-pyridin-3-yl)-3-methyl-1,3-dihydro-imidazo[4,5-c]quinolin-2-one] came in with a solubility of 2 µg/mL (≈ 4.83 µM). In addition, the IC50 at mTOR amounted to 191 nM; in data set [1] it was 45 nM; in data set [2], 15 nM.
For the compound `Cc1nn(C)cc1-n1c(=O)n(C)c2cnc3ccc(-c4cccc5c4OC(F)(F)O5)cc3c21` [Example 35, 8-(2,2-Difluoro-benzo[1,3]dioxol-4-yl)-1-(1,3-dimethyl-1H-pyrazol-4-yl)-3-methyl-1,3-dihydro-imidazo[4,5-c]quinolin-2-one], in “Solubility at pH 6.8” (setting [3]), the solubility amounted to 3 µg/mL (≈ 6.68 µM). For the same compound, the IC50 at mTOR came to 51 nM; in data set [1], 8 nM; in data set [2] it was 2 nM.
Turning to `COCc1cc(-c2ccc3ncc4c(c3c2)n(-c2cn(C)nc2C)c(=O)n4C)cnc1OC` [Example 202, 1-(1,3-Dimethyl-1H-pyrazol-4-yl)-8-(6-methoxy-5-methoxymethyl-pyridin-3-yl)-3-methyl-1,3-dihydro-imidazo[4,5-c]quinolin-2-one], in the data set “Solubility at pH 6.8” (setting [3]), the solubility came to 16 µg/mL (≈ 36 µM). Moreover, the results for the half-maximal inhibitory concentration (IC50) (on mTOR; in data set [1]; in data set [2]) were 29 nM, 23 nM and 1 nM, respectively.

For orientation: solubility means the dissolved amount per volume that the medium holds. The IC50 is the concentration needed to halve the response being measured.
